In patent US12691070B2, “Cationic lipids and preparation method thereof” (RiboX Therapeutics HK Limited, priority 2023, dated 2026):

Legend:
[1] = test system: BALB/C mice; experiment: Local tolerance determination by footpad injection; type: in vivo; conditions: cirRNA (SEQ ID NO: 1) LNP, 0.175 mg*kg-1 subcutaneous into the footpad, 24 hours post minus prior
Method: 6-8 week old, female BALB/C mice were injected with 0.175 mg*kg-1 RNA LNPs by subcutaneous injection into the footpad. Prior to, and 24 hours post injections, injected footpad thickness was determined by a caliper.

[2] = LNP zeta potential (Zetasizer); type: physicochemical
In short: (§1)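 LNPs of ionizable lipid/DSPC/cholesterol/DMG-PEG 2000 (50:10:38.5:1.5) made by microfluidic mixing of luciferase circRNA or mRNA in pH 4.5 acetate with lipids in ethanol (3:1, 12 ml/min), ionizable lipid:nucleotide 15 or 6, then dialyzed against PBS. Size, PDI (DLS) and zeta potential on Zetasizer; encapsulation by Ribogreen ± Triton X-100.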

[3] = test system: MCP-I; experiment: MCP-I cytokine elevation in serum; type: in vivo; conditions: cirRNA (SEQ ID NO: 1) LNPs, mice
Method: 6-8 week old, female BALB/C mice were injected with 0.5 mg*kg-1 of RNA LNPs by intravenous injection. At 2 and 24 hours post injection, animals were bled and sera concentrations of MCP-I were determined by an immunoassay (Luminex).

[4] = test system: Hep G2 cells; experiment: In vitro toxicity (CellTiter-Glo cell viability), Hep G2; type: cell-based;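 note: percent of untreated cells luminescence signal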
In short: (§2)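 First, cells receive RNA-LNPs at 1 μg/mL by transfection. After 72 hours, CellTiter-Glo reagent is added per kit protocol. Luminescence is then read and converted to cell viability.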

[5] = test system: Alanine Aminotransferase (ALT); experiment: Liver enzyme elevation in serum, ALT; type: in vivo; conditions: cirRNA (SEQ ID NO: 1) LNPs, BALB/C mice, intravenous 0.5 MPK
Method: (§3) 6-8 week old, female BALB/C mice were injected with 0.5 mg*kg-1 of RNA LNPs by intravenous injection. At 2 and 24 hours post injection, animals were bled and sera concentrations of Alanine Aminotransferase (ALT) and Aspartate Aminotransferase (AST) were determined by a blood chemistry analyzer.

[6] = test system: BALB/C mice; experiment: In vivo expression, whole-body luminescence (IVIS)
Method: 6-8 week old, female BALB/C mice were injected with 0.05 mg*kg-1 of RNA-LNPs encoding for firefly-luciferase by intravenous injection. At 6 hours post injection, animals were intraperitoneally injected with 15 mg/ml of Luciferin substrate and whole-body luminescence was determined by a bioluminescent in vivo imaging system (IVIS).

[7] = LNP size and polydispersity index (PDI) by dynamic light scattering; type: physicochemical; conditions: for Size: in nm (unit assumed)
In short: as §1

[8] = test system: RAW 264.7 cells; experiment: In vitro expression of firefly-luciferase, RAW 264.7; type: cell-based
In short: (§4)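 First, cells were dosed with RNA lipid nanoparticles encoding firefly luciferase (100 ng/mL). Second, at 72 h they were washed and lysed. Third, lysate luciferase activity was read with a luminometer.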

[9] = test system: Aspartate Aminotransferase (AST); experiment: Liver enzyme elevation in serum, AST; type: in vivo; conditions: cirRNA (SEQ ID NO: 1) LNPs, BALB/C mice, intravenous 0.5 MPK
Method: as §3

[10] = RNA encapsulation efficacy by Quant-IT Ribogreen kit; type: physicochemical; conditions: for Encapsulation Efficiency %: LNP with cirRNA (SEQ ID NO: 1); for Encapsulation Efficiency: LNP with mRNA (SEQ ID NO: 2)
In short: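 Dynamic light scattering and zeta potential measurements were run on PBS-dialyzed LNPs, which had been formed by microfluidic mixing at 12 ml/min with final lipid at 1.5 mM to 6 mM. RNA content and percent encapsulation were determined by Ribogreen with and without Triton X-100.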

[11] = test system: RAW 264.7 cells; experiment: In vitro toxicity (CellTiter-Glo cell viability), RAW 264.7; type: cell-based;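 note: percent of untreated cells luminescence signal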
In short: as §2

[12] = test system: Hep G2 cells; experiment: In vitro expression of firefly-luciferase, Hep G2; type: cell-based
In short: as §4

[13] = cirRNA (SEQ ID NO: 1) LNPs, Hep G2 cells
[14] = mRNA (SEQ ID NO: 2) LNP, 1 μg/mL, 72 hours post transfection
[15] = cirRNA (SEQ ID NO: 1) LNPs, BALB/C mice
[16] = mRNA (SEQ ID NO: 2) LNP, 0.05 mg*kg-1 intravenous, 6 hours post injection
[17] = cirRNA (SEQ ID NO: 1) LNPs, firefly-luciferase luminescence, RAW 264.7 cells
[18] = mRNA (SEQ ID NO: 2) LNP, 100 ng/mL, 72 hours post transfection, luciferase activity
[19] = cirRNA (SEQ ID NO: 1) LNPs, RAW 264.7 cells
[20] = cirRNA (SEQ ID NO: 1) LNPs, firefly-luciferase luminescence, Hep G2 cells

SMILES | Zeta (mV) ([2]; LNP with cirRNA (SEQ ID NO: 1)) | Zeta (mV) ([2]; LNP with mRNA (SEQ ID NO: 2)) | MCP-I in Sera 2 hours After 0.5 MPK Injection [3] [pg/mL] | MCP-I in Sera 24 hours After 0.5 MPK Injection [3] [pg/mL] | PDI ([7]; LNP with cirRNA (SEQ ID NO: 1)) | Size ([7]; LNP with cirRNA (SEQ ID NO: 1)) | PDI ([7]; LNP with mRNA (SEQ ID NO: 2)) | Size ([7]; LNP with mRNA (SEQ ID NO: 2)) | Encapsulation Efficiency % [10] [%] | Footpad Thickness (24 h−0 h, mm) [1] [mm] | In vitro Viability HepG2 [4, 13] [%] | In vitro Viability HepG2 [4, 14] [%] | ALT in Sera (IU/L) 2 hours After 0.5 MPK Injection [5] [IU/L] | ALT in Sera (IU/L) 24 hours After 0.5 MPK Injection [5] [IU/L] | In vivo Expression (Whole Body) [6, 15] | In vivo Expression (Whole Body) [6, 16] | In vitro Expression RAW [8, 17] | In vitro Expression RAW [8, 18] | AST in Sera (IU/L) 2 hours After 0.5 MPK Injection [9] [IU/L] | AST in Sera (IU/L) 24 hours After 0.5 MPK Injection [9] [IU/L] | further results
CCCCCCCCCCC(CCCCCCCC)COC(=O)CCCCCN(CCCCCC(=O)OCC(CCCCCCCC)CCCCCCCCCC)CCCOC(=O)NCCN1CCCCC1 (stereo not drawn) [Lipid 370] | 0.1617 | 0.9875 | 4872.33 | 1652.33 | 0.08162 | 90.63 | 0.1494 | 112.8 | 97 | 0.50 | 93 | 94 | 102.00 | 123.00 | 3.68E+08 | 3.37E+08 | 1.98E+06 | 3.26E+07 | 276.33 | 413.33 | Encapsulation Efficiency [10]: 93.87%; In vitro Viability RAW [11, 19]: 96%; In vitro Viability RAW [11, 14]: 107%; In vitro Expression HepG2 [12, 20]: 2.65E+07; In vitro Expression HepG2 [12, 18]: 6.38E+07
CCCCCCCCC(CCCCCC)C(=O)OCCCCCCCCN(CCCCCCCCOC(=O)C(CCCCCC)CCCCCCCC)CCCOC(=O)NCCN(C)C (stereo not drawn) [Lipid 374] | 3.631 | 3.895 | 3843.00 | 1289.00 | 0.1683 | 105.2 | 0.06656 | 88.86 | 96 | 0.63 | 70 | 57 | 136.67 | 152.67 | 1.53E+08 | 4.07E+09 | 2.34E+06 | 5.38E+05 | 435.67 | 431.67 | Encapsulation Efficiency [10]: 85.44%; In vitro Viability RAW [11, 19]: 84%; In vitro Viability RAW [11, 14]: 84%; In vitro Expression HepG2 [12, 20]: 1.89E+07; In vitro Expression HepG2 [12, 18]: 3.70E+07
CCCCCCCCC(CCCCCC)C(=O)OCCCCCCCCN(CCCCCCCCOC(=O)C(CCCCCC)CCCCCCCC)CCCOC(=O)NCc1ncc[nH]1 (stereo not drawn) [Lipid 375] | −1.253 | −4.713 | 2740.67 | 396.29 | 0.2011 | 92.54 | 0.008186 | 75.13 | 89 | 0.27 | 100 | 100 | 174.67 | 120.33 | 3.46E+08 | 8.41E+08 | 7.06E+05 | 2.13E+05 | 292.00 | 251.67 | Encapsulation Efficiency [10]: 88.53%; In vitro Viability RAW [11, 19]: 90%; In vitro Viability RAW [11, 14]: 78%; In vitro Expression HepG2 [12, 20]: 1.10E+06; In vitro Expression HepG2 [12, 18]: 4.36E+05

Now from value to compound, other results behind:

Zeta (mV) ([2]; LNP with cirRNA (SEQ ID NO: 1)) | Zeta (mV) ([2]; LNP with mRNA (SEQ ID NO: 2)) | MCP-I in Sera 2 hours After 0.5 MPK Injection [3] [pg/mL] | MCP-I in Sera 24 hours After 0.5 MPK Injection [3] [pg/mL] | PDI ([7]; LNP with cirRNA (SEQ ID NO: 1)) | Size ([7]; LNP with cirRNA (SEQ ID NO: 1)) | PDI ([7]; LNP with mRNA (SEQ ID NO: 2)) | Size ([7]; LNP with mRNA (SEQ ID NO: 2)) | Encapsulation Efficiency % [10] [%] | SMILES | Footpad Thickness (24 h−0 h, mm) [1] [mm] | In vitro Viability HepG2 [4, 13] [%] | In vitro Viability HepG2 [4, 14] [%] | ALT in Sera (IU/L) 2 hours After 0.5 MPK Injection [5] [IU/L] | ALT in Sera (IU/L) 24 hours After 0.5 MPK Injection [5] [IU/L] | In vivo Expression (Whole Body) [6, 15] | In vivo Expression (Whole Body) [6, 16] | In vitro Expression RAW [8, 17] | In vitro Expression RAW [8, 18] | AST in Sera (IU/L) 2 hours After 0.5 MPK Injection [9] [IU/L] | AST in Sera (IU/L) 24 hours After 0.5 MPK Injection [9] [IU/L] | further results
9.074 | 5.722 | 6397.67 | 561.62 | 0.1398 | 102 | 0.07745 | 87.9 | 97 | CCCCCCCCC(CCCCCC)C(=O)OCCCCCCCCN(CCCCCCCCOC(=O)C(CCCCCC)CCCCCCCC)CCCOC(=O)NCCCN(CC)CC (stereo not drawn) [Lipid 376] | 0.89 | 48 | 53 | 117.33 | 141.33 | 1.16E+08 | 1.56E+09 | 1.00E+06 | 8.33E+04 | 434.67 | 293.67 | Encapsulation Efficiency [10]: 90.28%; In vitro Viability RAW [11, 19]: 87%; In vitro Viability RAW [11, 14]: 100%; In vitro Expression HepG2 [12, 20]: 4.84E+06; In vitro Expression HepG2 [12, 18]: 5.32E+05
−2.171 | −2.552 | 1168.73 | 1025.26 | 0.1668 | 112.8 | 0.02507 | 88.83 | 92 | CCCCCCCCC(CCCCCC)C(=O)OCCCCCCCCN(CCCCCCCCOC(=O)C(CCCCCC)CCCCCCCC)CCCOC(=O)NCCN1CCCCC1 (stereo not drawn) [Lipid 380] | 0.25 | 89 | 94 | 89.33 | 122.00 | 4.50E+08 | 4.00E+08 | 2.22E+06 | 1.45E+06 | 196.33 | 480.67 | Encapsulation Efficiency [10]: 80.50%; In vitro Viability RAW [11, 19]: 86%; In vitro Viability RAW [11, 14]: 106%; In vitro Expression HepG2 [12, 20]: 2.95E+07; In vitro Expression HepG2 [12, 18]: 7.30E+07
−0.4606 | −13.05 | 5759.00 | 2458.33 | 0.1744 | 90.41 | 0.1802 | 94.23 | 95 | CCCCCCCCC(CCCCCC)C(=O)OCCCCCCCCN(CCCCCCCCOC(=O)C(CCCCCC)CCCCCCCC)CCCOC(=O)NCCN1CCCCCC1 (stereo not drawn) [Lipid 383] | 0.60 | 97 | 94 | 99.33 | 116.00 | 4.66E+08 | 2.01E+08 | 2.93E+06 | 2.14E+06 | 245.00 | 354.67 | Encapsulation Efficiency [10]: 86.72%; In vitro Viability RAW [11, 19]: 89%; In vitro Viability RAW [11, 14]: 94%; In vitro Expression HepG2 [12, 20]: 6.03E+06; In vitro Expression HepG2 [12, 18]: 3.97E+01
